Consider 19 compounds from US12180187B2, “1-phenyl-5-azinylpyrazolyl-3-oxyalkyl acids and their use for controlling unwanted plant growth” (BAYER AKTIENGESELLSCHAFT, priority 2019, dated 2024).

One assay deals with ABUTH. The assay is described as follows: Pre-emergence action at 320 g/ha against ABUTH. It counts as in vivo, Abutilon theophrasti. To be noted: greenhouse, scored visually after about 3 weeks vs untreated controls, 100% = plants have died, 0% = like control plants. The gist of the method:
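Sow seeds, cover with soil, spray soil surface (WP/EC, 0.5% additive, 600 l/ha water), hold in greenhouse ~3 wk, then rate % activity visually against untreated controls.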
With `COC(=O)COc1nn(-c2ccccc2F)c(-c2cncnc2)c1Br` [VI-004, Methyl {[4-bromo-1-(2-fluorophenyl)-5-(pyrimidin-5-yl)-1H-pyrazol-3-yl]oxy}acetate], the “Pre-emergence action at 320 g/ha against ABUTH in %” value was 80%.

Take `COC(=O)[C@@H](C)Oc1nn(-c2ccccc2F)c(-c2cncnc2)c1Br` [VI-011, Methyl (2R)-2-{[4-bromo-1-(2-fluorophenyl)-5-(pyrimidin-5-yl)-1H-pyrazol-3-yl]oxy}propanoate]: the “Pre-emergence action at 320 g/ha against ABUTH in %” value is recorded as 80%.

For `C[C@@H](Oc1nn(-c2ccccc2F)c(-c2cncnc2)c1Br)C(=O)O` [VI-012], the “Pre-emergence action at 320 g/ha against ABUTH in %” value worked out at 80%.

In the case of `COC(=O)[C@@H](C)Oc1nn(-c2ccccc2)c(-c2cncnc2)c1Br` [VI-013], the “Pre-emergence action at 320 g/ha against ABUTH in %” value is 80%.

With `COC(=O)[C@@H](C)Oc1nn(-c2ccccc2)c(-c2cccnc2)c1Br` [VII-008], the “Pre-emergence action at 320 g/ha against ABUTH in %” value stood at 80%.

For `CCOC(=O)COc1nn(-c2ccccc2F)c(-c2cncc(F)c2)c1Br` [VII-015], the “Pre-emergence action at 320 g/ha against ABUTH in %” value was determined as 80%.

As for `COC(=O)COc1nn(-c2ccc(F)cc2)c(-c2cccnc2)c1Br` [VII-028], the “Pre-emergence action at 320 g/ha against ABUTH in %” value is 90%.

Turning to `COC(=O)COc1nn(-c2ccccc2F)c(-c2cncc(F)c2)c1Br` [VII-035], the “Pre-emergence action at 320 g/ha against ABUTH in %” value came to 90%.

For the compound `COC(=O)[C@@H](C)Oc1nn(-c2cc(F)ccc2F)c(-c2cncc(F)c2)c1Br` [VII-132], the “Pre-emergence action at 320 g/ha against ABUTH in %” value is recorded as 90%.

For another assay, the system named is HORMU. Kind of assay: Pre-emergence action at 320 g/ha against HORMU. The format is in vivo, Hordeum murinum. To be noted: greenhouse, scored visually after about 3 weeks vs untreated controls, 100% = plants have died, 0% = like control plants. The source says: b) Seeds of monocotyledonous and dicotyledonous weed plants and crop plants are placed in plastic or organic planting pots and covered with soil. The compounds of the invention, formulated in the form of wettable powders (WP) or as emulsion concentrates (EC), are then applied onto the surface of the covering soil as aqueous suspension or emulsion with addition of 0.5% additive at a water application rate of 600 l/ha (converted). After the treatment, the pots are placed in a greenhouse and kept under good growth conditions for the trial plants. After about 3 weeks, the effect of the preparations is scored visually in comparison with untreated controls as percentages. For example, 100% activity=the plants have died, 0% activity=like control plants. Tables 13 to 26 below show the effects of selected compounds of the general formula (I) on various harmful plants and at an application rate corresponding to 320 g/ha, which were obtained by the experimental procedure mentioned above.
Regarding `COC(=O)COc1nn(-c2ccccc2F)c(-c2cncnc2)c1Br` [VI-004, Methyl {[4-bromo-1-(2-fluorophenyl)-5-(pyrimidin-5-yl)-1H-pyrazol-3-yl]oxy}acetate], the “Pre-emergence action at 320 g/ha against HORMU in %” value is 100%.

`O=C(O)COc1nn(-c2ccccc2F)c(-c2cncnc2)c1Br` [VI-007, {[4-Bromo-1-(2-fluorophenyl)-5-(pyrimidin-5-yl)-1H-pyrazol-3-yl]oxy}acetic Acid]: the “Pre-emergence action at 320 g/ha against HORMU in %” value was 100%.

Regarding `COC(=O)COc1nn(-c2ccc(F)cc2)c(-c2ccc(F)nc2)c1Br` [VII-002], the “Pre-emergence action at 320 g/ha against HORMU in %” value was 80%.

As to `O=C(O)COc1nn(-c2ccccc2F)c(-c2ccc(F)nc2)c1Br` [VII-003, {[4-Bromo-1-(2-fluorophenyl)-5-(6-fluoropyridin-3-yl)-1H-pyrazol-3-yl]oxy}acetic acid], the “Pre-emergence action at 320 g/ha against HORMU in %” value is 90%.

With `CCOC(=O)COc1nn(-c2ccccc2F)c(-c2ccc(F)nc2)c1Br` [VII-012, Ethyl {[4-bromo-1-(2-fluorophenyl)-5-(6-fluoropyridin-3-yl)-1H-pyrazol-3-yl]oxy}acetate], the “Pre-emergence action at 320 g/ha against HORMU in %” value amounted to 80%.

Consider `CCOC(=O)COc1nn(-c2ccc(F)cc2F)c(-c2ccc(F)nc2)c1Cl` [VII-016], for which the “Pre-emergence action at 320 g/ha against HORMU in %” value is listed as 90%.

Take `CCOC(=O)C(C)Oc1nn(-c2ccccc2F)c(-c2ccc(F)nc2)c1Br` (centres unmarked) [VII-019]: the “Pre-emergence action at 320 g/ha against HORMU in %” value is on record as 100%.

In the case of `COC(=O)C(C)Oc1nn(-c2ccccc2)c(-c2ccc(F)nc2)c1Cl` (centres unmarked) [VII-023, Methyl 2-{[4-chloro-5-(6-fluoropyridin-3-yl)-1-phenyl-1H-pyrazol-3-yl]oxy}propanoate], the “Pre-emergence action at 320 g/ha against HORMU in %” value is 100%.

For `CCC(Oc1nn(-c2ccccc2F)c(-c2ccc(F)nc2)c1Br)C(=O)OC` (centres unmarked) [VII-029], the “Pre-emergence action at 320 g/ha against HORMU in %” value was 90%.

Regarding `COC(=O)C(C)Oc1nn(-c2ccccc2)c(-c2cccnc2)c1Cl` (centres unmarked) [VII-032], the “Pre-emergence action at 320 g/ha against HORMU in %” value amounted to 80%.

With `CCOC(=O)COc1nn(-c2ccccc2F)c(-c2ccnc(F)c2)c1Br` [VIII-003, Ethyl {[4-bromo-1-(2-fluorophenyl)-5-(2-fluoropyridin-4-yl)-1H-pyrazol-3-yl]oxy}acetate], the “Pre-emergence action at 320 g/ha against HORMU in %” value is reported as 90%.
